Assay results reported in publication PMC8949104, “Bioactivity-Guided Separation of Anti-Cholinesterase Alkaloids from Uncaria rhynchophlly (Miq.) Miq. Ex Havil Based on HSCCC Coupled with Molecular Docking” (Molecules, 2022).
Like-named read-outs stand apart in the source and are kept apart here.

Columns and labels:
Butyryl-cholinesterase = biological target: T1, Butyryl-cholinesterase (Equus caballus, UniProt P81908); assay: biochemical; format: biochemical; details: for IC50: Ellman method, 37 °C, PBS pH 7.4, 412 nm, read-out: IC50 Value Butyrylcholinesterase
T1 construct: butyryl-cholinesterase was from equine serum; purchased Sigma-Aldrich; host or cells: equine serum
T1 sequence (P81908 whole entry): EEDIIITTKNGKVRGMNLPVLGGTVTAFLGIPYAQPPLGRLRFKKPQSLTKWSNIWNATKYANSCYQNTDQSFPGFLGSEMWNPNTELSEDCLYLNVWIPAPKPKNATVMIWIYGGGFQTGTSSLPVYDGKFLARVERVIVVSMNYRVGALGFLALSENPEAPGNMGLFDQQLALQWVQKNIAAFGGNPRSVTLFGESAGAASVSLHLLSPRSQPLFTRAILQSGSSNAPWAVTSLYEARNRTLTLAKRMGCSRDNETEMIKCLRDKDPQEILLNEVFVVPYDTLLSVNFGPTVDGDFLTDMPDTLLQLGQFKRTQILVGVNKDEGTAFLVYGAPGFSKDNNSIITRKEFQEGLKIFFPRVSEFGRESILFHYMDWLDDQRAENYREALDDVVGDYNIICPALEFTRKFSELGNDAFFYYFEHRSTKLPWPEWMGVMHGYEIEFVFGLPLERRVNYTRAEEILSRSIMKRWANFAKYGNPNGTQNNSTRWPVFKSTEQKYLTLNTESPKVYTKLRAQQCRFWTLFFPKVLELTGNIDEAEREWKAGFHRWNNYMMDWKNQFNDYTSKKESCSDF
Excerpt: (§1) HPLC-grade methanol and acetonitrile were purchased from Shanghai, China (Sinopharm Chemical Reagent Co., Ltd., Shanghai, China). Acetyl-cholinesterase was from electric eel, butyryl-cholinesterase was from equine serum, and acetylthiocholine iodide was purchased from Sigma-Aldrich (Sigma-Aldrich company, St. Louis, MO, USA). […] AB-8 macroporous resin was purchased from Yuanye (Yuanye Biochemical Technology Co., Ltd., Shanghai, China).
(§2) The Ellman method was used to determine the inhibitory activity of acetyl-cholinesterase and butyryl-cholinesterase of each monomer compound. Briefly, 150 µL of PBS buffer solution (pH = 7.4), 10 µL of the tested compound solution, and 20 µL of acetyl-cholinesterase or butyryl-cholinesterase solution (concentration of 0.2 U/mL) were transferred to a 96-well plate and placed in a gas bath constant temperature oscillator at 37 °C for 15 min. […] Then, 10 µL PBS was added to the blank group to exclude other irrelevant factors from affecting the experimental results and ensure the rationality of the experimental results. […] Inhibition Rate = (Anegative control group − Atest group/Anegative control group − Ablank group) × 100%(2)

Acetyl-cholinesterase = biological target: T2, Acetyl-cholinesterase (Electrophorus electricus, UniProt O42275); assay: biochemical; format: biochemical
T2 construct: Acetyl-cholinesterase was from electric eel; purchased Sigma-Aldrich; host or cells: electric eel (natural source)
T2 sequence (O42275 24-633): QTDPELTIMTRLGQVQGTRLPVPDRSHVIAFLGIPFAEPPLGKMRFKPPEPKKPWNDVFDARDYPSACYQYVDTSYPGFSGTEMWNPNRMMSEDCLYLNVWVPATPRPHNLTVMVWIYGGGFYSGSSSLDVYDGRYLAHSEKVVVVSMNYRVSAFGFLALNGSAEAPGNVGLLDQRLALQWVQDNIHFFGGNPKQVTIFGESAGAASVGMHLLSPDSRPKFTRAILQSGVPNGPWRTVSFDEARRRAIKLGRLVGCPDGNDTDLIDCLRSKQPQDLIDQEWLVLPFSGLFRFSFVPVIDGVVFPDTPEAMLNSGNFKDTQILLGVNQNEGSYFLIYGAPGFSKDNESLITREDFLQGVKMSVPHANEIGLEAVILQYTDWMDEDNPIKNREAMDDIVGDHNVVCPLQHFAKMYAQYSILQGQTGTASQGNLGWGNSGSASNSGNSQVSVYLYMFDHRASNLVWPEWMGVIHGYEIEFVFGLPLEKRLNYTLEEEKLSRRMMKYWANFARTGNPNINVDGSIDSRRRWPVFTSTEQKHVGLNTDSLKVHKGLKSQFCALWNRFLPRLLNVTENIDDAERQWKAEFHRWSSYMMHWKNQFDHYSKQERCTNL
Excerpt: as §1, §2

[1] = Ellman method, 37 °C, PBS pH 7.4, 412 nm, read-out: IC50 Value Acetylcholinesterase

SMILES	IC50 (Butyryl-cholinesterase) [µM]	butyryl-cholinesterase inhibitory activity (in words) (Butyryl-cholinesterase; qualitative statement)	IC50 (Acetyl-cholinesterase; [1]) [µM]	acetyl-cholinesterase inhibitory activity (in words) (Acetyl-cholinesterase; qualitative statement)	IC50 (Acetyl-cholinesterase) [µM]
C=C[C@H]1C(O[C@H]2O[C@H](CO)[C@@H](O)[C@H](O)[C@H]2O)OC=C2C(=O)N3CC[C@]4(C(=O)Nc5ccccc54)[C@H]3C[C@H]21 (stereo partly drawn) [Compound 1, 7-epi-javaniside]	2.13 ± 0.1	close to that of the positive drug	2.85 ± 0.5	close to that of the positive drug	
C=CC1C2C[C@H]3c4[nH]c5ccccc5c4CCN3C(=O)C2=CO[C@H]1O[C@H]1O[C@H](CO)[C@@H](O)[C@H](O)[C@H]1O (stereo partly drawn) [Compound 2, vincosamide]	23.18 ± 0.14				12.4 ± 0.86
C=CC1C2C[C@@H]3c4[nH]c5ccccc5c4CCN3C(=O)C2=CO[C@H]1O[C@H]1O[C@H](CO)[C@@H](O)[C@H](O)[C@H]1O (stereo partly drawn) [Compound 3, strictosamide]	6.47 ± 0.72				46.6 ± 0.58
COC(=O)C1=COC(OC2OC(CO)C(O)C(O)C2O)C2C3CN4CCc5c([nH]c6ccccc56)C4(CC12)O3 (stereo not drawn) [Compound 4, cadambine]	30.7 ± 0.69				26.1 ± 2.12
COC(=O)C1=COC(OC2OC(CO)C(O)C(O)C2O)C2C(O)CN3CCc4c([nH]c5ccccc45)C3CC12 (stereo not drawn) [Compound 5, 3α-dihydrocadambine]	33.3 ± 0.51		37 ± 1.57		
